Read-outs that look alike come from different tables or passages of the source.
Columns and labels:
[1] = molecular target: cdc2/cyclinB (Homo sapiens, UniProt P06493); experiment: cdc2/cyclinB kinase assay (Table 1, CdkB); assay type: biochemical; conditions: 32P incorporation into retinoblastoma, 25° C., 15 minutes
Protocol: (§1) All components except the ATP were added to the wells, and the plate was placed on a plate mixer for 2 minutes. The reaction was begun by addition of [^32P]ATP, and the plate was incubated at 25° C. for 15 minutes. The reaction was terminated by addition of 0.1 mL of 20% TCA. The plate was kept at 4° C. for at least 1 hour to allow the substrate to precipitate. The wells were then washed five times with 0.2 mL of 10% TCA and ^32P incorporation determined with a beta plate counter (Wallac Inc., Gaithersburg, Md.).

[2] = molecular target: cdk2/A (Homo sapiens, UniProt P24941); experiment: cdk2/A kinase assay; assay type: biochemical; conditions: 32P incorporation into retinoblastoma, 25° C., 15 minutes; read-out: Cdk2A IC50
Protocol: as §1

[3] = molecular target: cdk2/cyclinE (Homo sapiens, UniProt P24941); experiment: cdk2/cyclinE kinase assay; assay type: biochemical; conditions: 32P incorporation into retinoblastoma, 25° C., 15 minutes; read-out: Cdk2E IC50
Protocol: as §1

[4] = molecular target: cdk4/D (Homo sapiens, UniProt P11802); experiment: Cyclin-Dependent Kinase 4 (cdk4) Assay; assay type: biochemical
Protocol: As noted above, the compounds of this invention are potent inhibitors of cyclin-dependent kinases, and accordingly, are useful in treating and preventing neurodegenerative disorders, atherosclerosis, and other cell proliferative disorders like cancer. […] A typical assay, for instance, measures inhibitory activity against the cyclin D dependent kinase 4 enzyme (cdk4/D). […] The cdk4 assay was carried out as follows.
Cyclin-Dependent Kinase 4 (cdk4) Assay
Enzyme assays for IC50 determinations (Table 1 above) and kinetic evaluation were performed in 96 well filter plates (Millipore MADVN6550). The total volume was 0.1 mL containing a final concentration of 20 mM TRIS (tris[hydroxymethyl]aminomethane), at pH 7.4, 50 mM NaCl, 1 mM dithiothreitol, 10 mM MgCl2, 25 μM ATP containing 0.25 μCi of [^32P]ATP, 20 ng of cdk4, 1 μg of retinoblastoma, and appropriate dilutions of a compound of the present invention. All components except the ATP were added to the wells, and the plate was placed on a plate mixer for 2 minutes. The reaction was started by adding [^32P]ATP and the plate was incubated at 25° C. for 15 minutes. The reaction was terminated by addition of 0.1 mL of 20% trichloroacetic acid (TCA). The plate was kept at 4° C. for at least 1 hour to allow the substrate to precipitate. The wells were then washed five times with 0.2 mL of 10% TCA and ^32P incorporation was determined with a beta plate counter (Wallac Inc., Gaithersburg, Md.).

[5] = 25 μM ATP, retinoblastoma substrate, 25° C., 15 minutes, read-out: Cdk4 IC50

Sequence of cdk4/D (P11802 whole entry, species assumed): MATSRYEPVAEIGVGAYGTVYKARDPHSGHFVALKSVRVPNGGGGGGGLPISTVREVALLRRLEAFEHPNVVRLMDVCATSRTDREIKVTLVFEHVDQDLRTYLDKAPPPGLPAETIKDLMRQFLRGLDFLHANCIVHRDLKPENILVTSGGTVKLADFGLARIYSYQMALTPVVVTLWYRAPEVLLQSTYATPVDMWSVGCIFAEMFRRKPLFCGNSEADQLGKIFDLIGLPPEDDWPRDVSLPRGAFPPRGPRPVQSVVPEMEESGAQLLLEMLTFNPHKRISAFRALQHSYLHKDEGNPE
Sequence of cdk4/D (P24385 whole entry partner, species assumed): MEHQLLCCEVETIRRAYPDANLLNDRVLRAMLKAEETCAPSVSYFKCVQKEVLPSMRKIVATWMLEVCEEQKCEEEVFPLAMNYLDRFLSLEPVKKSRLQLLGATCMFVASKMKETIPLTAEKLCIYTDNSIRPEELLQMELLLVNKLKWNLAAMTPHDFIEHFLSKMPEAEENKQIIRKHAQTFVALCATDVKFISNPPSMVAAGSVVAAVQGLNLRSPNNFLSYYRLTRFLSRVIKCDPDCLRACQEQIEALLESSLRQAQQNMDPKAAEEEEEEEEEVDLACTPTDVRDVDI
Sequence of cdc2/cyclinB (P06493 whole entry, species assumed): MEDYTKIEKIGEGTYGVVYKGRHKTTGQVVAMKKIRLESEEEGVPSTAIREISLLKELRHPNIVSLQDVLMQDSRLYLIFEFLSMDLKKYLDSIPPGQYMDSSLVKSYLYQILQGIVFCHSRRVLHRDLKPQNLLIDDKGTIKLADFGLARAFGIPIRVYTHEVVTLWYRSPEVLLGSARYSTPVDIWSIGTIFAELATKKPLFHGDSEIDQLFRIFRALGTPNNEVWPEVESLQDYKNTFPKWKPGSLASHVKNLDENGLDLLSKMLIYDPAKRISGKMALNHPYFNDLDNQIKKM
Sequence of cdc2/cyclinB (P14635 whole entry partner, species assumed): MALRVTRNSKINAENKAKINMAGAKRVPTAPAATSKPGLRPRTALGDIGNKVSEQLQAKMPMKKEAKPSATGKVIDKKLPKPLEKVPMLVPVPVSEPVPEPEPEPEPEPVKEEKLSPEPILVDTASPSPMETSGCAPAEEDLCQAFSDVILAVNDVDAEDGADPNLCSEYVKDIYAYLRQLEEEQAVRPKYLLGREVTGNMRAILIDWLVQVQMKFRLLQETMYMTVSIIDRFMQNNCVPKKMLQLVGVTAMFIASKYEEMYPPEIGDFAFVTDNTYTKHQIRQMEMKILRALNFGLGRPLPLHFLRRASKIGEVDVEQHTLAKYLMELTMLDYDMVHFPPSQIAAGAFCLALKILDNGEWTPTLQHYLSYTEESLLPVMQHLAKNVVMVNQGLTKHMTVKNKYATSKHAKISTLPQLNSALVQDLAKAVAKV

Compound | IC50 [1] [µM] | IC50 [2] [µM] | IC50 [3] [µM] | IC50 [4] [µM] | melting point | IC50 [4, 5] [µM]
COc1ccc2cnc(Nc3ccc(N4CCN(C(=O)CN)CC4)cc3)nc2c1C1CCCC1 [Example 40, 2-Amino-1-{4-[4-(8-cyclopentyl-7-methoxy-quinazolin-2-ylamino)-phenyl]-piperazin-1-yl}-ethanone] | 0.27 | 0.095 | 0.45 | 0.002 | 202 °C | –
(8-Isopropyl-7-methoxy-quinazolin-2-yl)-(4′-methoxy-biphenyl-4-yl)-amine [Example 36] | – | – | > 5 | – | – | 0.225
COc1ccc2cnc(Nc3ccc(N4CCNCC4)cc3)nc2c1C(C)C [Example 34, (8-Isopropyl-7-methoxy-quinazolin-2-yl)-(4-piperazin-1-yl-phenyl)-amine] | 0.506 | 0.185 | 1.2 | 0.016 | – | –
CC(C)c1c(O)ccc2cnc(Nc3ccccc3)nc12 [Example 29, 8-Isopropyl-2-phenylamino-quinazolin-7-ol] | 0.813 | 0.25 | 0.55 | 0.325 | 103 to 104 °C | –
COc1ccc2cnc(Nc3ccc(N4CCOCC4)c(F)c3)nc2c1C(C)C [Example 38, (3-Fluoro-4-morpholin-4-yl-phenyl)-(8-isopropyl-7-methoxy-quinazolin-2-yl)-amine] | 1.23 | 0.451 | 2.75 | – | 202 to 203 °C | –
COc1ccc2cnc(Nc3ccc(N4CCN(C(C)=O)CC4)cc3)nc2c1C1CCCC1 [Example 20, 1-{4-[4-(8-Cyclopentyl-7-methoxy-quinazolin-2-ylamino)-phenyl]-piperazin-1-yl}-ethanone] | > 5 | 0.05 | 0.265 | 0.002 | 247 to 249 °C | –
COc1ccc2cnc(Nc3ccc(N4CCNCC4)c(F)c3)nc2c1C1CCCC1 [Example 50, (8-Cyclopentyl-7-methoxy-quinazolin-2-yl)-(3-fluoro-4-piperazin-1-yl-phenyl)-amine] | 0.214 | 0.062 | 0.3 | 0.004 | 228 to 229 °C | –
COc1ccc2cnc(Nc3ccc(N4CCN(C(=O)OC(C)(C)C)CC4)cc3)nc2c1C(C)C [Example 25, 4-[4-(8-Isopropyl-7-methoxy-quinazolin-2-ylamino)-phenyl]-piperazine-1-carboxylic Acid Tert-butyl Ester] | 10.2 | 1.62 | 10 | – | 173 to 175 °C | 0.063
COc1ccc2cnc(Nc3ccc(N4CCC(NC(=O)OC(C)(C)C)C4)cc3)nc2c1C1CCCC1 (centres unmarked) [Example 45, {1-[4-(8-Cyclopentyl-7-methoxy-quinazolin-2-ylamino)-phenyl]-pyrrolidin-3-yl}-carbamic Acid Tert-butyl Ester] | > 1.7 | 2.39 | 6.9 | – | 157 °C (dec.) | 0.275
COc1ccc2cnc(Nc3ccc(N4CCCC4)cc3)nc2c1C(C)C [Example 22, (8-Isopropyl-7-methoxy-quinazolin-2-yl)-(4-pyrrolidin-1-yl-phenyl)-amine] | > 5 | 1.6 | > 5 | 0.56 | 188 to 190 °C | –
COc1ccc2cnc(Nc3ccc(F)c(C)c3)nc2c1C1CCCC1 [Example 48, (8-Cyclopentyl-7-methoxy-quinazolin-2-yl)-(4-fluoro-3-methyl-phenyl)-amine] | 1.17 | 0.574 | 2.2 | – | 208 to 209 °C | 2.4
COc1ccc2cnc(Nc3ccc(N4CCCCC4)cc3)nc2c1C(C)C [Example 21, (8-Isopropyl-7-methoxy-quinazolin-2-yl)-(4-piperidin-1-yl-phenyl)-amine] | > 5 | 0.41 | 3.1 | 0.052 | 166 to 167 °C | –
COc1ccc2cnc(Nc3ccccc3)nc2c1C(C)C [Example 19, (8-Isopropyl-7-methoxy-quinazolin-2-yl)-phenyl-amine] | 1.04 | 0.253 | 1.07 | 0.125 | 172 to 173 °C | –
(8-Isopropyl-7-methoxy-quinazolin-2-yl)-(4-piperidin-1-yl-phenyl)-amine [Example 47] | 1.07 | 0.264 | 4.1 | – | – | 0.075
COc1ccc2cnc(Nc3ccc(N4CCN(C(=O)OC(C)(C)C)CC4)cc3)nc2c1C1CCCC1 [Example 26, 4-[4-(8-Cyclopentyl-7-methoxy-quinazolin-2-ylamino)-phenyl]-piperazine-1-carboxylic Acid Tert-butyl Ester] | 4.2 | 0.646 | – | – | 183 to 184 °C | 0.051
COc1ccc2cnc(Nc3ccc(N4CCOCC4)cc3)nc2c1C(C)C [Example 39, (8-Isopropyl-7-methoxy-quinazolin-2-yl)-(4-morpholin-4-yl-phenyl)-amine] | 1.97 | 0.665 | 4.4 | 0.052 | – | –
COc1ccc2cnc(Nc3ccc(N4CCOCC4)cc3)nc2c1C1CCCC1 [Example 44, (8-Cyclopentyl-7-methoxy-quinazolin-2-yl)-(4-morpholin-4-yl-phenyl)-amine] | 1.59 | 0.383 | 0.65 | 0.018 | 243 to 244 °C | –
COc1ccc2cnc(Nc3ccc(N4CCC(N)C4)cc3)nc2c1C1CCCC1 (centres unmarked) [Example 41, [4-(3-Amino-pyrrolidin-1-yl)-phenyl]-(8-cyclopentyl-7-methoxy-quinazolin-2-yl)-amine] | 0.398 | 0.203 | 0.95 | 0.116 | 220 to 221 °C | –
COc1ccc2cnc(Nc3ccc(F)c(C)c3)nc2c1C(C)C [Example 46, (4-Fluoro-3-methyl-phenyl)-(8-isopropyl-7-methoxy-quinazolin-2-yl)-amine] | 1.2 | 0.246 | 1.2 | – | 169 to 171 °C | 1.5
COc1ccc2cnc(Nc3ccc(N4CCCCC4)c(F)c3)nc2c1C1CCCC1 [Example 49, (8-Cyclopentyl-7-methoxy-quinazolin-2-yl)-(3-Fluoro-4-piperidin-1-yl-phenyl)-amine] | > 5 | – | 8 | – | 200 to 201 °C | 0.085
COc1ccc2cnc(Nc3ccc(N4CCNCC4)cc3)nc2c1C1CCCC1 [Example 27, (8-Cyclopentyl-7-methoxy-quinazolin-2-yl)-(4-piperazin-1-yl-phenyl)-amine] | 0.132 | 0.028 | 0.25 | – | – | 0.001
COc1ccc2cnc(Nc3ccc(N4CCCC4)cc3)nc2c1C1CCCC1 [Example 24, (8-Cyclopentyl-7-methoxy-quinazolin-2-yl)-(4-pyrrolidin-1-yl-phenyl)-amine] | > 5 | – | – | 1.75 | 240 to 242 °C | –
COc1ccc2cnc(Nc3ccc(N4CCC(N)C4)cc3)nc2c1C(C)C (centres unmarked) [Example 37, [4-(3-Amino-pyrrolidin-1-yl)-phenyl]-(8-isopropyl-7-methoxy-quinazolin-2-yl)-amine] | 1.3 | 0.296 | 2.55 | 0.011 | – | –
COc1ccc2cnc(Nc3ccccc3)nc2c1C1CCCC1 [Example 17, (8-Cyclopentyl-7-methoxy-quinazolin-2-yl)-phenyl-amine] | – | – | – | – | 187 to 188 °C | –
COc1ccc2cnc(Nc3ccc(N4CCN(C(C)=O)CC4)cc3)nc2c1C(C)C [Example 33, 1-{4-[4-(8-Isopropyl-7-methoxy-quinazolin-2-ylamino)-phenyl]-piperazin-1-yl}-ethanone] | – | – | 0.9 | 0.025 | 197 to 198 °C | –
COc1ccc2cnc(Nc3ccc(N4CCN(C(=O)C(N)CC(C)C)CC4)cc3)nc2c1C1CCCC1 (centres unmarked) [Example 42, 2-Amino-1-{4-[4-(8-cyclopentyl-7-methoxy-quinazolin-2-ylamino)-phenyl]-piperazin-1-yl}-4-methyl-pentan-1-one] | 0.333 | 0.103 | 0.5 | – | 130 to 132 °C | –
